Measured values as given in BigSolDB 2.1.

Conditions: in n-hexane

solubility (mole fraction) (293.15 K) | solubility (mole fraction) (298.15 K) | solubility (mole fraction) (303.15 K) | solubility (mole fraction) (310.15 K) | solubility (mole fraction) (315.15 K) | Compound
5.39e-05 | 6.26e-05 | 6.91e-05 | 8.03e-05 | 8.67e-05 | CNC1=NCCC2(CCCCC2)S1
0.0025 | 0.0028 | 0.0031 | 0.0037 | 0.0043 | CCNC1=NCCC2(CCCCC2)S1
3.81e-05 | 5.62e-05 | 7.2e-05 | 0.000105 | 0.000129 | NC1=NCCC2(CCCCC2)S1
